Data set [1] is described as follows: Thermal stability test (residual ratio by HPLC after storage in glass bottles). Type of data set: physicochemical. Particulars: for Residual ratio (%) After storage at 80° C. for 72 hours / Residual ratio (%) After storage at 100° C. for 24 hours / Residual ratio (%) After storage at 120° C. for 16 hours: glass bottles, HPLC area percentage. Here is the method: A test compound was introduced into glass bottles, and the bottles were stored for certain time periods under temperature conditions of 80° C., 100° C., or 120° C. Subsequently, the residual ratio (%) of the pyrimidine compound (1) in the test compound was measured. Regarding the residual ratio, the proportion of the pyrimidine compound (1) contained in the test compound was measured as the peak area percentage using high performance liquid chromatography. In regard to the measurement by high performance liquid chromatography, an ODS column was used as a column, and a mixture of two kinds, namely, a 0.1% aqueous solution of TFA and a 0.1% acetonitrile solution of TFA, was used as a solvent. The detection wavelength was 242 nm. The residual ratio was calculated by the following calculation expression from the area percentage of the pyrimidine compound (1) thus obtained. Residual ratio (%)=Area percentage of pyrimidine compound (1) after storage/area percentage of pyrimidine compound (1) before storage×100 As the test compound, the crystals (crystals of pyrimidine compound (1) hydrochloride) obtained in Reference Example 1-3, and the free form of the pyrimidine compound (1) were used.

Data set [2] has as its system LDL cholesterol in blood plasma. In words: Evaluation of combined use of statin and CETP inhibitor: blood plasma LDL cholesterol after two weeks oral administration in guinea pigs. The conditions noted are these: for Amount of LDL cholesterol in blood plasma: male guinea pigs, average ± standard deviation; for Amount of LDL cholesterol in blood plasma / Plasma LDL cholesterol lowering ratio: oral, two weeks. Type of data set: in vivo, guinea pigs (Slc: Hartley). Here is the method: Male guinea pigs (six weeks old, Slc: Hartley, Japan SLC, Inc.) were used for the experiment. Blood was collected from the jugular vein, and the guinea pigs were grouped on the basis of the total plasma cholesterol level and body weight.
After completion of repeated administration, blood was collected under anesthesia with pentobarbital, and the amount of LDL cholesterol in blood plasma (mg/dl. Hereinafter, described as “amount of LDL cholesterol in blood plasma”) was measured using high performance liquid chromatography according to the method by Usui, et al. (Usui et al., Clin. Chem., 46, 63-72 (2000)).
The group configuration consisted of the following four items, and six guinea pigs were used for each group.
(2) Pitavastatin single administration group: Pitavastatin calcium pentahydrate was orally administered at a dose of 1 mg/kg of body weight.
The amount of LDL cholesterol in blood plasma was obtained as an average value ±standard deviation.
Furthermore, the proportions of lowering of LDL cholesterol in blood plasma in the various drug administration groups (“plasma LDL cholesterol lowering ratios”) were calculated by the expression described below, from the average values of the amounts of LDL cholesterol in blood plasma of the control group and the various drug administration groups.
Plasma LDL cholesterol lowering ratio (%)=[(Cc−Ct)/Cc]×100
wherein Cc represents the average value of the amount of LDL cholesterol in blood plasma in the control group; and Ct represents the average value of the amount of LDL cholesterol in blood plasma of each of the various drug administration groups.
Furthermore, the average values of the amounts of LDL cholesterol in blood plasma of each of the various drug administration groups in a case in which the average value of the amount of LDL cholesterol in blood plasma of the control group was designated as 1, were calculated as relative indices.
Furthermore, determination of a synergistic effect according to Bulge formula was implemented.

[3] abbreviates: Test Example 1-2, control group designated as 1, pitavastatin 1 mg/kg, anacetrapib 30 mg/kg.
[4] abbreviates: Test Example 1-2, pitavastatin 1 mg/kg, anacetrapib 30 mg/kg, control 18.5 ± 4.8.
Where [5] appears, read: Test Example 1-2, vs control group, pitavastatin 1 mg/kg, anacetrapib 30 mg/kg.
[6] abbreviates: Test Example 1-1, [(Cc−Ct)/Cc]×100 vs control group, pitavastatin 1 mg/kg, pyrimidine compound (1) 30 mg/kg.
The mark [7] stands for this setting: Test Example 1-1, average plasma LDL cholesterol with control group designated as 1, pitavastatin 1 mg/kg, pyrimidine compound (1) 30 mg/kg.
The mark [8] stands for this setting: Test Example 1-1, pitavastatin calcium pentahydrate 1 mg/kg, pyrimidine compound (1) monohydrochloride 30 mg/kg, six per group, control 22.4 ± 2.9.

For the compound `CCN(C[C@H]1CC[C@H](CC(=O)O)CC1)c1ccc(C(F)(F)F)cc1CN(c1ncc(OCCS(C)(=O)=O)cn1)[C@@H](C)c1cc(C(F)(F)F)cc(C(F)(F)F)c1.Cl` [(S)-trans-{4-[({2-[({1-[3,5-bis(trifluoromethyl)phenyl]ethyl}{5-[2-(methylsulfonyl)ethoxy]pyrimidin-2-yl}amino)methyl]-4-(trifluoromethyl)phenyl}(ethyl)amino)methyl]cyclohexyl}acetic acid hydrochloride], in data set [1], the “Residual ratio (%) After storage at 80° C. for 72 hours” value was 100.0%, the “Residual ratio (%) After storage at 100° C. for 24 hours” value turned out to be 100.0% and the “Residual ratio (%) After storage at 120° C. for 16 hours” value stood at 99.5%. The Thermal stability result in data set [1] (conclusion from Table 10) is on record as “excellent thermal stability”.
`COc1cc(F)c(C(C)C)cc1-c1ccc(C(F)(F)F)cc1CN1C(=O)O[C@H](c2cc(C(F)(F)F)cc(C(F)(F)F)c2)[C@@H]1C` [Anacetrapib]: the Relative index in data set [2] (setting [3]) turned out to be 0.98. Also, the “Amount of LDL cholesterol in blood plasma” value (“Amount of LDL cholesterol” for short) in data set [2] (setting [4]) amounted to 18.2 ± 4.1 mg/dL. Also, in data set [2] (setting [5]), the “Plasma LDL cholesterol lowering ratio” value is 2%.
In the case of `CCN(C[C@H]1CC[C@H](CC(=O)O)CC1)c1ccc(C(F)(F)F)cc1CN(c1ncc(OCCS(C)(=O)=O)cn1)[C@@H](C)c1cc(C(F)(F)F)cc(C(F)(F)F)c1` [Free form of pyrimidine compound (1), (S)-trans-{4-[({2-[({1-[3,5-bis(trifluoromethyl)phenyl]ethyl}{5-[2-(methylsulfonyl)ethoxy]pyrimidin-2-yl}amino)methyl]-4-(trifluoromethyl)phenyl}(ethyl)amino)methyl]cyclohexyl}acetic acid], in data set [1], the “Residual ratio (%) After storage at 80° C. for 72 hours” value is 99.5%, the “Residual ratio (%) After storage at 100° C. for 24 hours” value came to 89.3% and the “Residual ratio (%) After storage at 120° C. for 16 hours” value amounted to 71.5%.
For `O=C(O)C[C@H](O)C[C@H](O)/C=C/c1c(C2CC2)nc2ccccc2c1-c1ccc(F)cc1` [Pitavastatin, (+)-monocalcium is[(3R,5S,6E)-7-[2-cyclopropyl-4-(4-fluorophenyl)-3-quinolyl]-3,5-dihydroxy-6-heptenoate}], the “Plasma LDL cholesterol lowering ratio” value in data set [2] (setting [6]) amounted to 31%; in data set [2] (setting [5]), 38%. Moreover, the Relative index is recorded as 0.69 in data set [2] (setting [7]) and 0.62 in data set [2] (setting [3]). Besides, the results for the “Amount of LDL cholesterol” value in data set [2] (setting [8]) and in data set [2] (setting [4]) were 15.5 ± 3.9 mg/dL and 11.5 ± 3.3 mg/dL, respectively.
Regarding `CCN(C[C@H]1CC[C@H](CC(=O)O)CC1)c1ccc(C(F)(F)F)cc1CN(c1ncc(OCCS(C)(=O)=O)cn1)[C@@H](C)c1cc(C(F)(F)F)cc(C(F)(F)F)c1` [Pyrimidine compound (1), (S)-trans-{4-[({2-[({1-[3,5-bis(trifluoromethyl)phenyl]ethyl}{5-[2-(methylsulfonyl)ethoxy]pyrimidin-2-yl}amino)methyl]-4-(trifluoromethyl)phenyl}(ethyl)amino)methyl]cyclohexyl}acetic acid], in data set [2] (setting [6]), the “Plasma LDL cholesterol lowering ratio” value amounted to 16%. Further, the Relative index in data set [2] (setting [7]) is listed as 0.84. The “Amount of LDL cholesterol” value in data set [2] (setting [8]) is 18.9 ± 3.8 mg/dL.

The values above are taken from patent US20170252338A1, “MEDICINE” (KOWA COMPANY, LTD., priority 2014, published 2017).
